Measurements published in the NIST ThermoML archive (doi:10.1021/je201014c).

Test: mn = molality of the nth substance listed, in mol/kg
Settings: 100 kPa, Liquid, Alternating current cell with electrodes

CCCCn1cc[n+](C)c1.F[B-](F)(F)F [1-butyl-3-methylimidazolium tetrafluoroborate] + CN(C)C=O
Settings	molar conductivity [S·m2/mol]
283.15 K, m1 = 5.542e-05	0.007204
283.15 K, m1 = 0.0002915	0.00709
283.15 K, m1 = 0.0004895	0.007031
283.15 K, m1 = 0.0006942	0.006981
283.15 K, m1 = 0.001153	0.006893
283.15 K, m1 = 0.001938	0.006777
283.15 K, m1 = 0.002927	0.006662
283.15 K, m1 = 0.003888	0.00657
283.15 K, m1 = 0.005903	0.006415
283.15 K, m1 = 0.008004	0.006288
283.15 K, m1 = 0.009964	0.006189
283.15 K, m1 = 0.012	0.0061
283.15 K, m1 = 0.01485	0.00599
288.15 K, m1 = 0.0001289	0.007713
288.15 K, m1 = 0.0002628	0.007644
288.15 K, m1 = 0.000427	0.007581
288.15 K, m1 = 0.0006069	0.007526
288.15 K, m1 = 0.001022	0.007427
288.15 K, m1 = 0.001697	0.007306
288.15 K, m1 = 0.002546	0.007188
288.15 K, m1 = 0.003454	0.007086
288.15 K, m1 = 0.005179	0.006929
288.15 K, m1 = 0.007043	0.006794
288.15 K, m1 = 0.008772	0.006689
288.15 K, m1 = 0.01186	0.006533
288.15 K, m1 = 0.01492	0.006408
293.15 K, m1 = 0.000111	0.00828
293.15 K, m1 = 0.0002943	0.008172
293.15 K, m1 = 0.0004483	0.008108
293.15 K, m1 = 0.000694	0.008027
293.15 K, m1 = 0.001218	0.007899
293.15 K, m1 = 0.001996	0.007759
293.15 K, m1 = 0.002935	0.007628
293.15 K, m1 = 0.003937	0.007515
293.15 K, m1 = 0.005916	0.007336
293.15 K, m1 = 0.007933	0.00719
293.15 K, m1 = 0.01009	0.007059
293.15 K, m1 = 0.01201	0.00696
293.15 K, m1 = 0.01495	0.006833
298.15 K, m1 = 0.0001246	0.008822
298.15 K, m1 = 0.0003199	0.0087
298.15 K, m1 = 0.000527	0.008612
298.15 K, m1 = 0.000691	0.008555
298.15 K, m1 = 0.001175	0.008424
298.15 K, m1 = 0.001926	0.008273
298.15 K, m1 = 0.002929	0.008121
298.15 K, m1 = 0.003956	0.007996
298.15 K, m1 = 0.005953	0.007802
298.15 K, m1 = 0.008044	0.00764
298.15 K, m1 = 0.009999	0.007512
298.15 K, m1 = 0.01205	0.007397
298.15 K, m1 = 0.0149	0.007265
303.15 K, m1 = 0.0001037	0.00939
303.15 K, m1 = 0.0002814	0.009262
303.15 K, m1 = 0.000494	0.00916
303.15 K, m1 = 0.0007407	0.009069
303.15 K, m1 = 0.001192	0.00894
303.15 K, m1 = 0.001886	0.00879
303.15 K, m1 = 0.002913	0.008621
303.15 K, m1 = 0.003912	0.008489
303.15 K, m1 = 0.006107	0.008261
303.15 K, m1 = 0.007974	0.008107
303.15 K, m1 = 0.009993	0.007966
303.15 K, m1 = 0.01195	0.007849
303.15 K, m1 = 0.01492	0.007699
308.15 K, m1 = 5.763e-05	0.009991
308.15 K, m1 = 0.0002447	0.009826
308.15 K, m1 = 0.0004495	0.009716
308.15 K, m1 = 0.0006821	0.009621
308.15 K, m1 = 0.001183	0.009467
308.15 K, m1 = 0.001933	0.009295
308.15 K, m1 = 0.002911	0.009124
308.15 K, m1 = 0.003919	0.008981
308.15 K, m1 = 0.005927	0.008756
308.15 K, m1 = 0.008008	0.008573
308.15 K, m1 = 0.009997	0.008426
308.15 K, m1 = 0.01201	0.008298
308.15 K, m1 = 0.0149	0.00814
313.15 K, m1 = 9.063e-05	0.0105
313.15 K, m1 = 0.0002952	0.01034
313.15 K, m1 = 0.0004868	0.01024
313.15 K, m1 = 0.0007015	0.01015
313.15 K, m1 = 0.001177	0.009997
313.15 K, m1 = 0.001951	0.009811
313.15 K, m1 = 0.002946	0.009626
313.15 K, m1 = 0.003906	0.009482
313.15 K, m1 = 0.005912	0.009242
313.15 K, m1 = 0.007925	0.009053
313.15 K, m1 = 0.00996	0.008895
313.15 K, m1 = 0.01199	0.008759
313.15 K, m1 = 0.01511	0.008574
318.15 K, m1 = 9.401e-05	0.01103
318.15 K, m1 = 0.0002791	0.01089
318.15 K, m1 = 0.0004526	0.01079
318.15 K, m1 = 0.0006468	0.01071
318.15 K, m1 = 0.001144	0.01054
318.15 K, m1 = 0.001896	0.01035
318.15 K, m1 = 0.0029	0.01015
318.15 K, m1 = 0.003892	0.009988
318.15 K, m1 = 0.005917	0.00973
318.15 K, m1 = 0.00798	0.009527
318.15 K, m1 = 0.009945	0.009368
318.15 K, m1 = 0.01195	0.009227
318.15 K, m1 = 0.01488	0.009038
